Experimental data taken from patent publication US7045636B2, “MCH antagonists for the treatment of obesity” (Schering Corporation, priority 2001, dated 2006).
Like-named read-outs stand apart in the source and are kept apart here.

Biological target: T1, MCH receptor (Homo sapiens, UniProt Q99705)
T1 construct: expressed in transfected cells; host or cells: CHO cells
Assay: MCH Receptor Binding Assay
Description: MCH Receptor Binding Assay:
Membranes from CHO cells expressing the MCH receptor were prepared by lysing cells with 5 mM HEPES for 15 min at 4C. Cell lysates were centrifuged ([…], 15 min) and the pellet was re-suspended in 5 mM HEPES. For each 96-well plate (Microlite, Dynex Technologies), 1 mg of cell membranes were incubated with 10 mg of wheat germ agglutinin SPA beads (Amersham) for 5 min at 4 C in a volume of 10 ml of binding buffer (25 mM HEPES, 10 mM MGCl2, 10 mM NaCl, 5 mM MnCl2, 0.1% BSA). The membrane/bead mixture was centrifuged (1500×g, 3.5 min), the supernatant was aspirated, and the pellet was re-suspended in 10 ml binding buffer. The centrifugation, aspiration and re-suspension were then repeated. The membrane/bead mixture (100 μl) was then added to 96-well plates containing 50 μl of 500 pM [^125I]-MCH (NEN) and […] of the appropriate concentration of compound (4× the desired final concentration). Nonspecific binding was determined by including 1 μM MCH in the binding reaction. The binding reaction was incubated at room temperature for 2 h. Plates were then analyzed in a TOPCOUNT microplate scintillation counter (Packard). Data was analyzed and Ki values were determined using GraphPad Prim.

[1] = Table 1, membranes from CHO cells expressing the MCH receptor, [125I]-MCH, SPA, read-out: MCH Ki (nm)
[2] = Table 2, membranes from CHO cells expressing the MCH receptor, [125I]-MCH, SPA, read-out: Ki (MCH)
[3] = text of the example, printed unit nm, read-out: MCH Ki

T1 sequence (Q99705 whole entry): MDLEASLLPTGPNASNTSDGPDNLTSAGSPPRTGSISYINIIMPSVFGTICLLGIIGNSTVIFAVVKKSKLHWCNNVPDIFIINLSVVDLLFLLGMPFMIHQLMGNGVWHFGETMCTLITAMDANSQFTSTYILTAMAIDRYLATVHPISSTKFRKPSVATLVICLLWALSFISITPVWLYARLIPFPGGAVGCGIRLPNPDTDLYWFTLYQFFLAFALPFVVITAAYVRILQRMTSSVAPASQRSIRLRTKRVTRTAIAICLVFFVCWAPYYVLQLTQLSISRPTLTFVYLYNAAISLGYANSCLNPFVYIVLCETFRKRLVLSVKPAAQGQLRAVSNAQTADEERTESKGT

Row | Ki [1] | SMILES | further results
1 | 6.7 nM | N#Cc1cccc(-c2ccc(CCN(CC(=O)Nc3cc(F)cc(C(F)(F)F)c3)C(=O)CN3CC[C@@H](O)C3)cc2)c1 [Example 5] | 
2 | 56 nM | CC(C(=O)Nc1cc(Cl)cc(Cl)c1)N(Cc1ccc(-c2cccc(C#N)c2)cc1)C(=O)CCN1CC[C@H](O)C1 (stereo partly drawn) [Example 26] | 
3 | 27 nM | N#Cc1cccc(-c2ccc(CN(CC(=O)Nc3cc(Cl)cc(Cl)c3)C(=O)CN3CC[C@H](O)C3)cc2)c1 [Example 18] | 
4 | 63 nM | CN1CCN(CC(=O)N(CCc2ccc(-c3cccc(C#N)c3)cc2)CC(=O)Nc2cc(Cl)cc(Cl)c2)CC1 [Example 28] | 
5 | 5.3 nM | N#Cc1cccc(-c2ccc(CCN(CC(=O)Nc3ccc(F)c(Cl)c3)C(=O)CN3CCCC3)cc2)c1 [Example 4] | 
6 | 12 nM | N#Cc1cccc(-c2ccc(CCN(CC(=O)Nc3cc(Cl)cc(Cl)c3)C(=O)CCN3CC[C@@H](O)C3)cc2)c1 [Example 12] | 
7 | 25 nM | N#Cc1cccc(-c2ccc(CCN(CC(=O)Nc3ccc(Cl)c(C(F)(F)F)c3)C(=O)CN3CCCC3)cc2)c1 [Example 17] | 
8 |  | C[C@H](c1ccc(-c2cccc(C#N)c2)cc1)N(CC(=O)Nc1cc(Cl)cc(Cl)c1)C(=O)CCN1CC[C@@H](O)C1 [Example 47] | Ki [2]: 23 nM
9 | 40 nM | N#Cc1cccc(-c2ccc(CN(CC(=O)Nc3cc(Cl)cc(Cl)c3)C(=O)C3CN(C4CCCC4)C3)cc2)c1 [Example 24] | 
10 | 35 nM | N#Cc1cccc(-c2ccc(CN(CC(=O)Nc3cc(Cl)cc(Cl)c3)C(=O)CN3CCCC3)cc2)c1 [Example 21] | 
11 | 36 nM | CN(C)CC(=O)N(CC(=O)Nc1cc(Cl)cc(Cl)c1)Cc1ccc(-c2cccc(C#N)c2)cc1 [Example 22] | 
12 | 9 nM | CC(C(=O)Nc1cc(Cl)cc(Cl)c1)N(CCc1ccc(-c2cccc(C#N)c2)cc1)C(=O)CN1CCCCC1 (stereo not drawn) [Example 37] | 
13 | 82 nM | CC(=O)N[C@@H]1CCN(CC(=O)N(CCc2ccc(-c3cccc(C#N)c3)cc2)CC(=O)Nc2cc(Cl)cc(Cl)c2)C1 [Example 31] | 
14 |  | C[C@@H](c1ccc(-c2cccc(C#N)c2)cc1)N(CC(=O)Nc1cc(Cl)cc(Cl)c1)C(=O)CCN1CCCCC1 [Example 44] | Ki [2]: 18 nM
15 |  | C[C@@H](c1ccc(-c2cccc(C#N)c2)cc1)N(CC(=O)Nc1cc(Cl)cc(Cl)c1)C(=O)CCN(C)C [Example 51] | Ki [2]: 45 nM
16 |  | CC(c1ccc(-c2cccc(C#N)c2)cc1)N(CC(=O)Nc1cc(Cl)cc(Cl)c1)C(=O)CCN1CC[C@@H](O)C1 (stereo partly drawn) [Example 41] | Ki [2]: 12 nM
17 |  | C[C@@H](c1ccc(-c2cccc(C#N)c2)cc1)N(CC(=O)Nc1cc(Cl)cc(Cl)c1)C(=O)CCNC1CCCC1 [Example 52] | Ki [2]: 67 nM
18 | 10 nM | N#Cc1cccc(-c2ccc(CCN(CC(=O)Nc3cc(Cl)cc(Cl)c3)C(=O)CCN3CCCC3)cc2)c1 [Example 9] | 
19 | 28 nM | N#Cc1cccc(-c2ccc(CCN(CC(=O)Nc3ccc(F)c(C(F)(F)F)c3)C(=O)CN3CCCC3)cc2)c1 [Example 19] | 
20 |  | CC(c1ccc(-c2cccc(C#N)c2)cc1)N(CC(=O)Nc1cc(Cl)cc(Cl)c1)C(=O)CN1CCCC1 (stereo not drawn) [Example 40] | Ki [3]: 21 nM
21 |  | C[C@H](c1ccc(-c2cccc(C#N)c2)cc1)N(CC(=O)Nc1cc(Cl)cc(Cl)c1)C(=O)CN1CC[C@@H](O)C1 [Example 49] | Ki [2]: 31 nM
22 | 52 nM | CN(C)CC(=O)N(CC(=O)Nc1cc(Cl)cc(Cl)c1)c1ccc(-c2cccc(C#N)c2)cc1 [Example 25] | 
23 |  | CC(C)CNCCC(=O)N(CC(=O)Nc1cc(Cl)cc(Cl)c1)[C@@H](C)c1ccc(-c2cccc(C#N)c2)cc1 [Example 50] | Ki [2]: 34 nM

Row | Ki [1] | SMILES | further results
24 | 61 nM | N#Cc1cccc(-c2ccc(CN(CC(=O)Nc3cc(Cl)cc(Cl)c3)C(=O)CN3CC[C@@H](O)C3)cc2)c1 [Example 27] | 
25 |  | CNCCC(=O)N(CC(=O)Nc1cc(Cl)cc(Cl)c1)[C@@H](C)c1ccc(-c2cccc(C#N)c2)cc1 [Example 53] | Ki [2]: 78 nM
26 | 13 nM | N#Cc1cccc(-c2ccc(CN(CC(=O)Nc3cc(Cl)cc(Cl)c3)C(=O)NCCN3CCCC3)cc2)c1 [Example 13] | 
27 | 72 nM | N#Cc1cccc(-c2ccc(CN(CC(=O)Nc3ccc(F)c(C(F)(F)F)c3)C(=O)CN3CCCC3)cc2)c1 [Example 29] | 
28 |  | CC(c1ccc(-c2cccc(C#N)c2)cc1)N(CC(=O)Nc1cc(Cl)cc(Cl)c1)C(=O)CN1CC[C@H](O)C1 (stereo partly drawn) [Example 42] | Ki [2]: 16 nM
29 | 9.3 nM | N#Cc1cccc(-c2ccc(CCN(CC(=O)Nc3cc(Cl)cc(Cl)c3)C(=O)CN3CCCCC3)cc2)c1 [Example 7] | 
30 | 73 nM | CC(C(=O)Nc1cc(Cl)cc(Cl)c1)N(Cc1ccc(-c2cccc(C#N)c2)cc1)C(=O)CCN1CCCC1 (stereo not drawn) [Example 30] | 
31 |  | N#Cc1cccc(-c2ccc(CC(=O)N(CCCN3CCCC3)CC(=O)Nc3cc(Cl)cc(Cl)c3)cc2)c1 [Example 61] | Ki (printed unit nM, read-out: MCH Ki): 62 nM
32 |  | C[C@@H](c1ccc(-c2cccc(C#N)c2)cc1)N(CC(=O)Nc1cc(Cl)cc(Cl)c1)C(=O)CCNC1CCC1 [Example 48] | Ki [2]: 28 nM
33 |  | C[C@@H](c1ccc(-c2cccc(C#N)c2)cc1)N(CC(=O)Nc1cc(Cl)cc(Cl)c1)C(=O)CCN1CC[C@@H](O)C1 [Example 43] | Ki [2]: 18 nM
34 | 32 nM | N#Cc1cccc(-c2ccc(CCN(CC(=O)Nc3cc(Cl)cc(Cl)c3)C(=O)CCN3CCC3)cc2)c1 [Example 20] | 
35 | 7.2 nM | N#Cc1cccc(-c2ccc(CCN(CC(=O)Nc3cc(Cl)cc(Cl)c3)C(=O)CCN3CC[C@H](O)C3)cc2)c1 [Example 6] | 
36 | 24 nM | CCCNCCC(=O)N(CCc1ccc(-c2cccc(C#N)c2)cc1)CC(=O)Nc1cc(Cl)cc(Cl)c1 [Example 16] | 
37 | 19 nM | N#Cc1cccc(-c2ccc(CCN(CC(=O)Nc3cc(Cl)cc(Cl)c3)C(=O)CN3CCCC3)cc2)c1 [Example 15] | 
38 |  | N#Cc1cccc(-c2ccc(CN(CC(=O)Nc3cc(Cl)cc(Cl)c3)C(=O)CCN3CCCC3)cc2)c1 [Example 1] | Ki [3]: 21 nM
39 | 90 nM | CN(C)CC(=O)N(CCc1ccc(-c2cccc(C#N)c2)cc1)CC(=O)Nc1cc(Cl)cc(Cl)c1 [Example 32] | 
40 | 11.7 nM | N#Cc1cccc(-c2ccc(CCN(CC(=O)Nc3cc(F)cc(C(F)(F)F)c3)C(=O)CN3CCCC3)cc2)c1 [Example 11] | 
41 | 8 nM | CC(C(=O)Nc1cc(Cl)cc(Cl)c1)N(CCc1ccc(-c2cccc(C#N)c2)cc1)C(=O)CN1CC[C@H](O)C1 (stereo partly drawn) [Example 36] | 
42 | 11 nM | N#Cc1cccc(-c2ccc(CCN(CC(=O)Nc3ccc(Cl)c(C(F)(F)F)c3)C(=O)CN3CC[C@@H](O)C3)cc2)c1 [Example 10] | 
43 |  | CCCNCCC(=O)N(CC(=O)Nc1cc(Cl)cc(Cl)c1)[C@@H](C)c1ccc(-c2cccc(C#N)c2)cc1 [Example 45] | Ki [2]: 22 nM
44 | 3.7 nM | N#Cc1cccc(-c2ccc(CCN(CC(=O)Nc3ccc(F)c(Cl)c3)C(=O)CN3CC[C@@H](O)C3)cc2)c1 [Example 3] | 
45 |  | C[C@@H](c1ccc(-c2cccc(C#N)c2)cc1)N(CC(=O)Nc1cc(Cl)cc(Cl)c1)C(=O)CCNCC1CC1 [Example 46] | Ki [2]: 22 nM
